Laboratory results: patent US8598225B2, “Use of L-butylphthalide in the manufacture of medicaments for treatment of cerebral infarct” (CSPC Zhongqi Pharmaceutical Technology (Shijiazhuang) Co., …, priority 2003, dated 2013)
“Also recorded” adds a separate entry of the source.

Legend:
[1] = test system: transient focal cerebral ischemic model (tMCAO); test: Cerebral infarct volume of tMCAO rats (2 h middle cerebral artery occlusion, 24 h reperfusion, TTC staining); assay type: in vivo, rat; settings: 15 min after ischemia; for reduction of infarct volume vs. vehicle group: tMCAO rats, p<0.001; for effect on infarct volume (in words): oral, l-NBP and d-NBP 20 and 40 mg/kg, dl-NBP 40 and 80 mg/kg, vs. vehicle
[2] = test system: transient focal cerebral ischemic model (tMCAO); test: Neurological behavioral evaluation of tMCAO rats (score 0-4); settings: for mean neurological score: 15 min after ischemia, scored at 24 h, vehicle 2.6±0.3; for improvement of neurological symptoms (in words): oral, d-NBP 20 and 40 mg/kg, dl-NBP 40 and 80 mg/kg, vs. vehicle
Experimental: Male Wistar rats weighed 280-320 g were used, with each 5 rats kept in one cage. Animals were allowed free access to food and water at room temperature controlled at 23° C. The rats were anesthetized with 40 mg/kg of sodium pentobarbital. Under the surgical microscope, a midline neck skin incision was make to expose the right common cartotid artery, and the internal carotid artery (ICA) and external carotid artery (ECA) were then separated free from surrounding nerves and fascia, and the anastomotic branch was ligated. The ECA were ligated and cut, pulled to be straight and in line with ICA. A nylon suture with rounded tip and the diameter of 0.28 mm (coated with poly-L-lysine) was introduced from ECA into the lumen of the ICA for about 20 mm, advancing endocranially to the starting point of middle cerebral artery.
After 2 h of ischemia, the nylon suture was carefully withdrawn, and the ECA was ligated at the site of opening. The rats were then sutured and placed back into the cage, and allowed to reperfuse for 24 h. Room temperature throughout the operation was kept at 24-25° C. The rats were placed on the heating plate of 37° C. to maintain the body temperature throughout the operation. The administration was performed 15 minutes after ischemia.
Rats were divided into eight groups with 10 rats in each group. Group 1 was vehicle control with 1 ml/kg of vegetable oil; groups 2) and 3) were 40 and 80 mg/kg of dl-NBP; groups 4) and 5) were 20 and 40 mg/kg of d-NBP; groups 6) and 7) were 20 and 40 mg/kg of l-NBP; and group 8 was 0.1 mg/kg of MK801. Animals in groups 1-7 were orally administered, and animals in group 8 were intraperitoneally administered.
Neurological behavioral observation was conducted after 24 h of ischemia. Rats were lifted up by tail 1 inch away from the ground, and the conditions of both forelimbs were observed; both shoulders were pushed to observe if there was any difference between the resistances by both sides; the rats were placed down to the ground and their walking conditions were observed. Scores were given in accordance with the following criteria. • 0: strong forelimbs, symmetrically stretching towards the ground; identical resistance of both shoulders, and normal walk. • 1: contralateral shoulder flexion, forelimb flexion; identical resistance of both shoulders, and normal walk. • 2: contralateral shoulder flexion, forelimb flexion; decreased resistance of contralateral shoulder to push; and normal walk. • 3: contralateral shoulder flexion, forelimb flexion; decreased resistance of contralateral shoulder to push; and circling when walking • 4: contralateral shoulder flexion, forelimb flexion; and unable to autonomously move. The higher the score is, the more severe the behavioral disorder of the animal is.
The results were expressed as mean±standard error. Neurological behavioral score and cerebral infarct volume were statistically analyzed using one-way ANOVA and the difference between groups using posthoc LSD test. Result was considered to show a significant difference when p<0.05.

[3] = test system: acute ischemic cerebral stroke; settings: administration group; 192 cases multi centered, random, double blinded, placebo control (placebo 41.0%); cited from earlier work
micro-circulation = settings: previous studies; cited from earlier work

Row | Compound | reduction of infarct volume vs. vehicle group ([1]; 0.1 mg/kg intraperitoneal) | mean neurological score ([2]; 0.1 mg/kg intraperitoneal, p<0.001) | adverse behavioral signs in treated animals ([2]; 0.1 mg/kg intraperitoneal, tMCAO rats) | effect on infarct volume (in words) [1] | improvement of neurological symptoms (in words) [2] | total effective rate [3] | reduction of infarct volume vs. vehicle group ([1]; 40 mg/kg oral, 24 h reperfusion) | cerebral protective and micro-circulation improving effect (in words) (micro-circulation) | mean neurological score ([2]; 20 mg/kg oral, p<0.01) | mean neurological score ([2]; 40 mg/kg oral, p<0.001)
1 | C[C@]12N[C@H](Cc3ccccc31)c1ccccc12 [MK801] | 81.8% | 0.8 | the limbs were weak, and staggered when sprawling, ataxia occurred, and unilaterally circled | – | – | – | – | – | – | –
2 | CCCCC1OC(=O)c2ccccc21 (racemic) [dl-NBP, racemic butylphthalide] | – | – | – | no significant effect; also recorded: no reduction effect | no significant improvement | 70.7% | – | – | – | –
3 | CCCC[C@@H]1OC(=O)c2ccccc21 [l-NBP, L-n-butylphthalide] | – | – | – | significantly reduced dose-dependently; also recorded: very significantly and dose dependently reduced | – | – | 80.4% | also has cerebral protective effect and micro-circulation improving effect | 1.4 | 1.1
4 | CCCC[C@H]1OC(=O)c2ccccc21 [d-NBP, dextro-butylphthalide] | – | – | – | no significant effect | no significant improvement | – | – | no such effect | – | –
